Here are results for nine compounds from the supplement of paper PMC4862054.

What all share (details): incubation time: 72 h
The test system of assay [1] is CAL-148. The assay is described as follows: normalised viability (% of control), CellTiter-Blue; higher = more viable cells (about 100 = DMSO control). The protocol: (§1)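 DSRT, CellTiter-Blue viability, 72 h incubation. Signal is normalised to DMSO and benzethonium chloride controls. Value is the normalised response at dose 6.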
(In general: Resazurin is reduced to fluorescent resorufin, in cell work by metabolically active cells.)

In assay [2] the test system is CAL-51. The description is as above. The procedure: as §1
Assay [3] relates to CAL-85-1. The assay is described as above. The procedure:
as §1

Assay [4] concerns DU-4475. Described as above. The procedure: as §1
Assay [5] has as its system HDQ-P1. Described as above. The procedure:
as §1

The subject of assay [6] is MDA-MB-453. The description is as above. The procedure: as §1
Assay [7] has as its system BT-474. The assay can be described thus: normalised response (% of control), CellTox Green; higher = less cell death (100 = DMSO, 0 = benzethonium chloride kill control). In short, it runs like this: (§2)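 The table gives the normalised signal for a single concentration in each entry. Breast cancer cell lines were seeded (20 µl suspension) into 384-well plates holding compound at 5 concentrations in 10-fold steps over a compound-specific 10,000-fold range and incubated 72 h, then read for CellTox Green fluorescence (485/520 nm) and CellTiter-Glo luminescence. Normalisation on each plate used 0.1 % DMSO (100) and a positive kill control (0).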

The subject of assay [8] is BT-549. Described as above. The method, boiled down:
as §2

Assay [9] relates to CAL-120. Described as above. In short, it runs like this: as §2
The test system of assay [10] is CAL-148. Described as above. In short, it runs like this:
as §2

Assay [11] concerns CAL-51. The assay is described as above. In short, it runs like this:
as §2

In assay [12] the test system is CAL-85-1. The description is as above. In short, it runs like this:
as §2

Assay [13] has as its system DU-4475. The assay is described as above. In short, it runs like this:
as §2

Assay [14] deals with HCC1143. Described as above. The method, boiled down: as §2
The test system of assay [15] is HCC1599. The assay is described as above. The method, boiled down: as §2
The test system of assay [16] is HCC1937. Described as above. In short, it runs like this: as §2
For assay [17], the system named is HDQ-P1. Described as above. In short, it runs like this:
as §2

For assay [18], the system named is Hs578T. Described as above. The method, boiled down: as §2
Assay [19] relates to MCF-10A. Described as above. In short, it runs like this: as §2
Assay [20] deals with MDA-MB-231. Described as above. In short, it runs like this: as §2
Assay [21] deals with MDA-MB-436. Described as above. The method, boiled down: as §2
The test system of assay [22] is MDA-MB-453. The description is as above. In short, it runs like this:
as §2

For assay [23], the system named is MDA-MB-468. The assay is described as above. In short, it runs like this:
as §2

The test system of assay [24] is MFM-223. The assay is described as above. The method, boiled down:
as §2

Assay [25] concerns BT-474. The assay is described as follows: normalised response (% of control), CellTiter-Glo; higher = more viable cells (100 = DMSO, 0 = benzethonium chloride kill control). The procedure: (§3)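 DSRT, 72 h incubation, CellTox Green / CellTiter-Glo readout. Signal is normalised to DMSO and benzethonium chloride controls. Value is the normalised response at the highest dose.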
(Cellular ATP, detected with luciferase, serves as a proxy for viable cell number.)

For assay [26], the system named is BT-549. Described as above. The procedure: as §3
For assay [27], the system named is CAL-120. The assay is described as above. The protocol:
as §3

Assay [28] has as its system CAL-148. The assay is described as above. The protocol: as §3
Assay [29] has as its system CAL-51. Described as above. The protocol: as §3
Assay [30] relates to CAL-85-1. The description is as above. The protocol: as §3
The subject of assay [31] is DU-4475. The description is as above. The protocol:
as §3

Assay [32] relates to HCC1143. The description is as above. The protocol:
as §3

Assay [33] relates to HCC1599. The assay is described as above. The protocol:
as §3

Assay [34] concerns HCC1937. The description is as above. The protocol: as §3
Assay [35] relates to HDQ-P1. Described as above. The procedure:
as §3

Assay [36] relates to Hs578T. Described as above. The protocol:
as §3

Assay [37] concerns MCF-10A. Described as above. The protocol:
as §3

For assay [38], the system named is MDA-MB-231. Described as above. The procedure: as §3
Assay [39] has as its system MDA-MB-436. The description is as above. The procedure:
as §3

For assay [40], the system named is MDA-MB-453. The description is as above. The protocol:
as §3

In assay [41] the test system is MDA-MB-468. The description is as above. The procedure: as §3
Assay [42] concerns MFM-223. The description is as above. The procedure: as §3
The test system of assay [43] is SK-BR-3. The assay is described as above. The procedure:
as §3

Turning to `CN1CCC(COc2cnc(-c3cccc(Cn4nc(-c5cccc(C#N)c5)ccc4=O)c3)nc2)CC1` (300 nM), the normalised viability in assay [1] was 86.9%; in [2], 101%; in assay [3], 93.4%; in assay [4], 105%; in assay [5], 81.3%; in [6], 94.5%.
As for `CN(C)C/C=C/C(=O)Nc1cc2c(Nc3ccc(F)c(Cl)c3)ncnc2cc1O[C@H]1CCOC1` [Afatinib] (300 nM), the normalised viability came to 74.2% in assay [1]; 101% in assay [2]; 52.9% in [3]; 84.6% in assay [4]; 46.1% in [5]; 36.5% in assay [6].
As for `COc1cc(Nc2ncc3c(n2)-c2ccc(Cl)cc2C(c2c(F)cccc2OC)=NC3)ccc1C(=O)O` [Alisertib] (10000 nM), the normalised response was 43.6% in assay [7]; 63% in assay [8]; 96.5% in [9]; 63.4% in [10]; 11.4% in assay [11]; 91.2% in assay [12]. The normalised response was determined as 94% in assay [13]; 76% in assay [14]; 93.1% in assay [15]; 31.6% in assay [16]; 94.7% in assay [17]; 114% in [18]. Also, the normalised response in assay [19] is -35.5%; in [20] it was 79.3%; in assay [21], 78.5%; in assay [22], 70.1%; in [23] it was -5.36%; in assay [24], 77.6%. Also, the normalised response in assay [25] was 62%; in assay [26], 37.2%; in assay [27] it was 62.2%; in assay [28] it was 49.7%; in assay [29], 43.5%; in [30], 90.5%. In addition, the normalised response in assay [31] was determined as 74%; in [32] it was 61.9%; in assay [33] it was 81.5%; in assay [34] it was 64.5%; in assay [35], 60.5%; in assay [36] it was 66.9%. Further, the normalised response in assay [37] stood at 61.4%; in assay [38], 64.5%; in [39], 58.7%; in assay [40], 122%; in assay [41] it was 24.1%; in assay [42], 36.7%. Also, the normalised response in assay [43] is 61.5%.
For the compound `CN1CC[C@H](c2c(O)cc(O)c3c(=O)cc(-c4ccccc4Cl)oc23)[C@H](O)C1` [Alvocidib] (300 nM), the normalised viability in assay [1] was 17.5%; in assay [2] it was 31.6%; in assay [3], 17.3%; in assay [4] it was 1.07%; in [5], 24.5%; in [6] it was 32.7%.
Regarding `Nc1nc(Cl)nc2c1ncn2[C@H]1C[C@H](O)[C@@H](CO)O1` [Cladribine] (30 nM), the normalised viability in [1] worked out at 108%; in assay [2], 109%; in assay [3], 102%; in assay [4] it was 101%; in assay [5] it was 90.2%; in assay [6] it was 107%.
As for `Nc1ccn([C@@H]2O[C@H](CO)[C@@H](O)[C@@H]2O)c(=O)n1` [Cytarabine] (300 nM), the normalised viability in assay [1] amounted to 42.2%; in assay [2], 51.2%; in assay [3], 89.2%; in assay [4], 72.6%; in [5], 75.1%; in [6], 87.5%.
Turning to `Cc1c2oc3c(C)ccc(C(=O)N[C@@H]4C(=O)N[C@H](C(C)C)C(=O)N5CCC[C@H]5C(=O)N(C)CC(=O)N(C)[C@@H](C(C)C)C(=O)O[C@@H]4C)c3nc-2c(C(=O)N[C@@H]2C(=O)N[C@H](C(C)C)C(=O)N3CCC[C@H]3C(=O)N(C)CC(=O)N(C)[C@@H](C(C)C)C(=O)O[C@@H]2C)c(N)c1=O` [Dactinomycin] (30 nM), the normalised viability was determined as 1.36% in assay [1]; 4.91% in [2]; 4.36% in [3]; 0% in assay [4]; 16.6% in [5]; 7.48% in [6].
Consider `COc1cccc2c1C(=O)c1c(O)c3c(c(O)c1C2=O)C[C@@](O)(C(=O)CO)C[C@@H]3O[C@H]1C[C@H](N)[C@H](O)[C@H](C)O1` [Doxorubicin] (30 nM), for which the normalised viability is 58.7% in [1]; 87.1% in assay [2]; 92.2% in assay [3]; 55% in assay [4]; 75.2% in assay [5]; 100% in assay [6].
As to `Cc1ccc(F)c(NC(=O)Nc2ccc(-c3cccc4[nH]nc(N)c34)cc2)c1` [Linifanib] (30 nM), the normalised viability in assay [1] is 94.1%; in assay [2], 107%; in [3], 118%; in [4] it was 116%; in [5], 96.2%; in assay [6], 96.4%.
